Where two headings read alike, the source gives them in different places.
What was measured:
BV2 microglial cells = experiment: Aβ42 uptake, confocal microscopy and ELISA; assay type: cell-based; details: naive BV2 cells, 16 hours pretreatment then 2 hours with Aβ42, vs DMSO
Method: After incubation, the cells were labeled with a plasma membrane dye (PM, green) and imaged.

APP/PS1 mice = experiment: Recruitment of microglial cells around amyloid plaques; details: mouse, in vivo
[1] = test system: HMC3 human microglia cells; experiment: MSD U-PLEX cytokine secretion induced by TNF-α; assay type: cell-based; details: TNF-α induced, 24 hr; for inhibition at 3 µM: Homo sapiens, HMC3
Method: (§1) Human microglial cell line HMC3 (CRL-3304) was purchased from ATCC (American Type Culture Collection). HMC3 cell line was cultured in DMEM medium with 10% FBS, 1% L-glutamine, and 1% penicillin/streptomycin. Cells were maintained in 37° C. incubator at 5% CO2.
HMC3 cells were resuspended, counted using the LUNA-II Automated Cell Counter, seeded in the 6-well plate (400 K cells/2 mL medium/well), and incubated overnight to allow cells to attach. The media and detached cells were removed next day. The cell layer was washed three times in PBS and once in serum- and phenolred-free DMEM (SPFM). […] The conditioned medium was collected and centrifuged at 1,000×RCF (g) for 5 min to pellet detached cells and large debris, which was subsequently passed through a 0.22 μm filter with PVDF membrane to remove smaller debris. Samples of the supernatant medium were put in a CoolRack (#07210041, Fisher Scientific) on dry ice for Snap-freezing and kept at −80° C. until use.
Meso-scale U-PLEX plates that detect a cytokine panel including IL-1β, IL-2, IL-4, IL-6, IL-8, IL-10, IFN-γ, TNF-α, and a chemokine panel including IP-10/CXCL10, MCP-1/CCL2, MIP-1α/CCL3, MIP-1P/CCL4, Eotaxin/CCL11, were used as per manufacture's protocol. 25 μL of the conditioned medium was used in each well of the MSD plates to detect the analytes. The plates were then analyzed on an MSD QuickPlex SQ120 instrument.
(§2) All the data were presented as mean±standard error from at least three times, each done in triplicate. The statistical significance between two groups was determined by Student's t test, whereas the comparisons of multiple groups were carried out by one-way ANOVA, followed by Bonferroni's post-test using GraphPad Prism 7 (GraphPad Software, Inc.). A probability value of * p<0.05 was considered to be significant.

[2] = test system: HMC3 human microglia cells; experiment: Cell viability assay by AO/PI stain; assay type: cell-based; details: 0.3 μM, TNF-α 0.3 μg/mL
Method: as §1
HMC3 cells were resuspended, counted using the LUNA-II Automated Cell Counter, seeded in the 6-well plate (300 K cells/2 mL medium/well), and incubated overnight to allow cells to attach. Cells were treated with TNF-α or IFN-γ at five different concentrations (0, 10, 30, 100, 300 ng/mL) for 24 hr to induce cell activation. The supernatant medium was completely aspirated and 1 mL of fresh DMEM was added to wash the cell layer to remove detached cells and debris. The attached cells were resuspended and washed with PBS. Cells were washed with FACS buffer (2% FBS in PBS) prior to incubation with Zombie Violet Fixable Viability Dye (#423114, Biolegend, 1:500 dilution) and Human Fe Receptor Blocking Solution (#422302, Biolegend, 1:20) diluted in FACS buffer at RT for 10 min in the dark. Cells were then washed with FACS buffer and incubated at RT for 20 min with the following cell-surface antibodies: FITC anti-MHC II (#361706, Biolegend), PerCP/Cy5.5 anti-CD11b (#301328, Biolegend), BV605 anti-CD40 (#334336, Biolegend), PE anti-CD86 (#374206, Biolegend), PE/Cy7 anti-CD163 (#326514, Biolegend), APC anti-CD206 (#321110, Biolegend), and PerCP/Cy5.5 anti-CD14 (#367110, Biolegend). All of the cell-surface antibodies were diluted 1:20 in FACS buffer. Cells were permeabilized using the Transcription Factor Fixation/Permeabilization Buffer Set (#424401, Biolegend). Then cells were incubated with the following intracellular antibodies: APC/Cy7 anti-CD68 (#333822, Biolegend), purified anti-IBA1 (#PA5-27436, Invitrogen), Goat anti-Rabbit-Alexa Fluor 647 (#A21245, Invitrogen), purified anti-GFAP (#644702, Biolegend), and Goat anti-Mouse-Alexa Fluor 488 (#11029, Invitrogen). All of the intracellular antibodies were diluted 1:100 in the Permeabilization buffer (lx). Cells were washed with Permeabilization buffer and fixed in Fixation Buffer (#420801, Biolegend). Flow cytometry was performed using the Attune NxT Acoustic Focusing Cytometer (Thermo Fisher Scientific). Analysis of flow cytometry data was performed via FCS Express 7 (DeNovo Software).
Cell viability was assessed with a LUNA-FL Automated fluorescence cell counter. Viable nucleated cells show green fluorescence and dying nucleated cells show red fluorescence. 18 µL of sample was mixed with 2 μL Acridine Orange/Propidium Iodide (AO/PI) Stain.
as §2

Rat = details: cited from earlier work
Rabbit = details: Oral; cited from earlier work
Rhesus Monkeys = details: cited from earlier work
Stump-tailed Monkeys = details: 20 mg cromolyn and lactose capsules, 4, 16 and 72 capsules/day, 17 weeks; cited from earlier work
Squirrel Monkeys = details: 6 months, cited from earlier work
TgSOD1^G93A mice = experiment: Meso Scale Discovery multi-spot cytokine assay in spinal cord and plasma of TgSOD1 mice; details: 6.3 mg/kg i.p.
[3] = TgSOD1-Cromolyn vs TgSOD1-Vehicle, p=0.0273

O=C(O)c1cc(=O)c2c(OCC(O)COc3cccc4oc(C(=O)O)cc(=O)c34)cccc2o1 [cromolyn]
Aβ42 uptake (BV2 microglial cells): increased Aβ42 uptake
Recruitment of microglial cells around amyloid plaques (APP/PS1 mice): increased recruitment of microglial cells
IFN-γ concentration ([1]; 0.3 μM): decreased
IL-1β concentration ([1]; 0.3 μM): decreased
IL-6 concentration ([1]; 0.3 μM): decreased
IL-8 concentration ([1]; 0.3 μM): decreased
inhibition at 3 µM ([1]; read-out: inhibition of IFN-γ): > 40%
inhibition at 3 µM ([1]; read-out: inhibition of IL-1β): > 40%
inhibition at 3 µM ([1]; read-out: inhibition of IL-6): > 40%
inhibition at 3 µM ([1]; read-out: inhibition of IL-8): 25.8%
TNF-α induced cell death [2]: significantly reduced cell death
LD50 Value (Rat; IP): >4 gm/kg
LD50 Value (Rat; IV): >4 gm/kg
LD50 Value (Rat; Oral): >11 gm/kg
LD50 Value (Rat; SC): 6 gm/kg
LD50 Value (Rabbit): >8 gm/kg
Mortality (Rhesus Monkeys; single IV dose of 5, 50, 500, 1000 mg/kg, 7-day observation): There were no mortalities.
Clinical signs and weight (Rhesus Monkeys; single IV dose, at 500 and 1000 mg/kg): Slight ataxia and weight
Body weight (Stump-tailed Monkeys): Some weight loss.
Ill health, general toxicity, or nasal irritation (Squirrel Monkeys; 2% cromolyn 0, 2, 6, 12 mg/day): No signs of ill health,
Ill health, general toxicity, or nasal irritation (Squirrel Monkeys; 4% cromolyn 0, 5, 16, 32 mg/day): No signs of ill health,
IL-10 level in plasma (TgSOD1^G93A mice; TgSOD1-Cromolyn vs TgSOD1-Vehicle, p=0.0095): significantly decreased
IL-2 level in plasma (TgSOD1^G93A mice; TgSOD1-Cromolyn vs TgSOD1-Vehicle, p=0.0211): significantly decreased
IL-6 level in plasma (TgSOD1^G93A mice; [3]): significantly decreased
TNFα level in spinal cord (TgSOD1^G93A mice; [3]): significant decrease
TNFα level in plasma (TgSOD1^G93A mice; TgSOD1-Cromolyn vs TgSOD1-Vehicle, p=0.110): trend towards a decrease
IL-13 level in plasma (TgSOD1^G93A mice; between groups, FIG. 2A): no statistically significant difference
IL-5 level in plasma (TgSOD1^G93A mice; between groups, FIG. 2C): no statistically significant difference

From US12458622B2, “Methods of treatment of coronavirus-induced inflammation conditions” (priority 2020, dated 2025)
